Assay [1] addresses T1, EP4 (Homo sapiens, UniProt P35408). Nature of the assay: EP4 binding study. The settings on record: read-out: EP4 data (EC50 in nM) KI. The procedure: (§1) Data from running binding and activity studies on the compounds of the invention were carried out as described in U.S. Pat. No. 7,427,685, the contents of which are incorporated herein by reference.
The target in assay [2] is T2, EP2 (Homo sapiens, UniProt P43116). Nature of the assay: EP2 binding study. Conditions: read-out: EP2 Data (EC50 in nM) Ki. The procedure:
as §1

The target of assay [3] is T1, EP4. The experiment in a line: EP4 cAMP activity study. Format: cell-based. The procedure: as §1
Assay [4] has as its target T2, EP2. The experiment in a line: EP2 cAMP activity study. Format: cell-based. Here is the method: as §1
For the next assay, the target named is T3, hEP3A (Homo sapiens, UniProt P43115).
T3 sequence (P43115 1-390): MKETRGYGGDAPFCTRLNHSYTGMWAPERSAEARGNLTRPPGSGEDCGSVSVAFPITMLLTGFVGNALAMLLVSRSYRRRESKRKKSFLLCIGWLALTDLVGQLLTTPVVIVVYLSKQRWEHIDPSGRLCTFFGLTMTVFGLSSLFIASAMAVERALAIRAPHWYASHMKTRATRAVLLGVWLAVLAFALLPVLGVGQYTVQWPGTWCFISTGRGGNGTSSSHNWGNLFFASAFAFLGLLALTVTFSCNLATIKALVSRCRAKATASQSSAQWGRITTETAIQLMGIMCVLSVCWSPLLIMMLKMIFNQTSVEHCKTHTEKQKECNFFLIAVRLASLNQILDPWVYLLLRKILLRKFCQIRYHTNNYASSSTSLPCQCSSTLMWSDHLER
Nature of the assay: Other receptors activity, hEP3A. It counts as cell-based. The procedure:
as §1

SMILES strings stand for the structures.

T2 sequence (P43116 whole entry): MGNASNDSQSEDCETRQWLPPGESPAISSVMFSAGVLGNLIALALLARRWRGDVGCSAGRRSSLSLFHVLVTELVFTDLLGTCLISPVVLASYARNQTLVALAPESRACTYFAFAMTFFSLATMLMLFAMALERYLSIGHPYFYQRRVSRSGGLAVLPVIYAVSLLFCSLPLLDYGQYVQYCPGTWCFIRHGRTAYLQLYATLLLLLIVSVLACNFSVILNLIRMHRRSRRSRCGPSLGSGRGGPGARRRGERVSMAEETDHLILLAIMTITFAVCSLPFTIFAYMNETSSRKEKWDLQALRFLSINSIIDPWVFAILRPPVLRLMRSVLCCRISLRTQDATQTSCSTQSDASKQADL
T1 sequence (P35408 whole entry): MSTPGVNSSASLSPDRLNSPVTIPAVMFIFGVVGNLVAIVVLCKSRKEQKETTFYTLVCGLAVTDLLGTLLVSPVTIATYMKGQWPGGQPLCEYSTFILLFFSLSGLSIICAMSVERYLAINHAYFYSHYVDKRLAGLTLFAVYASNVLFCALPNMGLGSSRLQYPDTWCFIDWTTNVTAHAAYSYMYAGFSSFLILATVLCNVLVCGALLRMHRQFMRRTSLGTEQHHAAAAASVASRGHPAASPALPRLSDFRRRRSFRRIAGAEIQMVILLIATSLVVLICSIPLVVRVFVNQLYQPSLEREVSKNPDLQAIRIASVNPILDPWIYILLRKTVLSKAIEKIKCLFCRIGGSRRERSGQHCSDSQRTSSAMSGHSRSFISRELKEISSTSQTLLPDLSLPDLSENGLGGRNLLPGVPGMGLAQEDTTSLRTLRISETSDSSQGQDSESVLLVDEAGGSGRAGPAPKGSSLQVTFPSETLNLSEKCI

What is called Ki is a measure of affinity in units of concentration, obtained from inhibition or displacement. As usually defined, the EC50 is the concentration giving half of the maximal effect. On to `O=C(O)c1ccc(CC2Cc3c(cccc3-c3cccc4ccccc34)C2=O)cc1` (stereo not drawn) [Example 4, 4-((4-(Naphthalen-1-yl)-1-oxo-2,3-dihydro-1H-inden-2-yl)methyl)benzoic acid], for which the results for the inhibition constant (Ki) at EP4 [1] and at EP2 [2] were 1280 nM and 2080 nM, respectively. A half-maximal response on EP4 [3] (EC50) required 1240 nM.

Take `O=C(O)c1ccc(CC2CCc3c(cccc3-c3cccc(C(F)(F)F)c3)C2=O)cc1` (stereo not drawn) [Example 1, 4-((1-Oxo-5-(3-(trifluoromethyl)phenyl)-1,2,3,4-tetrahydronaphthalen-2-yl)methyl)benzoic acid]: the inhibition constant (Ki) at EP4 [1] turned out to be 149 nM; at EP2 [2], 70 nM. The results for the half-maximal effective concentration (EC50) on EP2 [4] and on EP4 [3] were 6 nM and 196 nM, respectively.

As for `O=C(O)c1cccc(CC2Cc3c(cccc3-c3cccc(C(F)(F)F)c3)C2=O)c1` (stereo not drawn) [Example 19, 3-((1-Oxo-4-(3-(trifluoromethyl)phenyl)-2,3-dihydro-1H-inden-2-yl)methyl)benzoic acid], the Ki on EP4 [1] stood at 2740 nM; at EP2 [2], 6760 nM. In addition, the response at EP4 [3] was half-maximal at 1470 nM (EC50).

Turning to `O=C(O)c1ccc(CC2CCc3c(cccc3-c3cccc(C(F)(F)F)c3)C2=O)s1` (stereo not drawn) [Example 14, 5-((1-Oxo-5-(3-(trifluoromethyl)phenyl)-1,2,3,4-tetrahydronaphthalen-2-yl)methyl)thiophene-2-carboxylic acid], the Ki came out at 1070 nM on EP4 [1] and 1390 nM at EP2 [2]. For the same compound, the results for the EC50 on EP2 [4] and on EP4 [3] were 79 nM and 341 nM, respectively.

For `O=C(O)c1ccc(CC2Cc3c(cccc3-c3cccc(C(F)(F)F)c3)C2=O)s1` (stereo not drawn) [Example 15, 5-((1-Oxo-4-(3-(trifluoromethyl)phenyl)-2,3-dihydro-1H-inden-2-yl)methyl)thiophene-2-carboxylic acid], the results for the inhibition constant (Ki) at EP4 [1] and at EP2 [2] were 137 nM and 131 nM, respectively. Also, the figures for the EC50 on EP2 [4], at EP4 [3] and at hEP3A were 11 nM, 54 nM and greater than 10000 nM, respectively.

In the case of `O=C(O)c1ccc(CC2Cc3c(cccc3-c3ccccc3C(F)(F)F)C2=O)cc1` (stereo not drawn) [Example 7, 4-((1-Oxo-4-(2-(trifluoromethyl)phenyl)-2,3-dihydro-1H-inden-2-yl)methyl)benzoic acid], the Ki at EP4 [1] was 7090 nM; on EP2 [2], greater than 10000 nM. The compound also showed an EC50 on EP4 [3] greater than 10000 nM.

With `O=C(O)c1cc(CC2Cc3c(cccc3-c3cccc(C(F)(F)F)c3)C2=O)cs1` (stereo not drawn) [Example 17, 4-((1-Oxo-4-(3-(trifluoromethyl)phenyl)-2,3-dihydro-1H-inden-2-yl)methyl)thiophene-2-carboxylic acid], the Ki on EP4 [1] amounted to 7 nM; on EP2 [2], 674 nM. For the same compound, the values for the EC50 at EP2 [4] and at EP4 [3] were 695 nM and greater than 10000 nM, respectively.

As to `O=C(O)c1ccc(CC2Cc3c(cccc3-c3ccc(Cl)c(C(F)(F)F)c3)C2=O)cc1` (stereo not drawn) [Example 10, 4-((4-(4-Chloro-3-(trifluoromethyl)phenyl)-1-oxo-2,3-dihydro-1H-inden-2-yl)methyl)benzoic acid], the Ki on EP4 [1] came to 1350 nM; on EP2 [2] it was 3 nM. In addition, the concentration for a half-maximal effect (EC50) is 1 nM on EP2 [4] and 1090 nM on EP4 [3].

As for `O=C(O)c1ccc(CC2Cc3c(cccc3-c3ccccc3)C2=O)cc1` (stereo not drawn) [Example 13, 4-((1-Oxo-4-phenyl-2,3-dihydro-1H-inden-2-yl)methyl)benzoic acid], the Ki at EP4 [1] came to 1010 nM; on EP2 [2] it was 1140 nM. Moreover, it took 2440 nM to reach a half-maximal effect at EP4 [3] (EC50).

Regarding `O=C(O)c1ccc(CC2Cc3c(cccc3-c3cccc(Cl)c3)C2=O)cc1` (stereo not drawn) [Example 3, 4-((4-(3-Chlorophenyl)-1-oxo-2,3-dihydro-1H-inden-2-yl)methyl)benzoic acid], the Ki at EP4 [1] amounted to 954 nM; at EP2 [2] it was 130 nM. The EC50 at EP2 [4] was found to be 26 nM; on EP4 [3] it was 1070 nM.

Turning to `O=C(O)c1ccc(CC2Cc3c(cccc3-c3ccc4ccccc4c3)C2=O)cc1` (stereo not drawn) [Example 5, 4-((4-(Naphthalen-2-yl)-1-oxo-2,3-dihydro-1H-inden-2-yl)methyl)benzoic acid], the Ki at EP4 [1] worked out at 1190 nM; at EP2 [2], 61 nM. Also, the values for the EC50 on EP2 [4] and on EP4 [3] were 40 nM and greater than 10000 nM, respectively.

With `Cc1cccc(-c2cccc3c2CC(Cc2ccc(C(=O)O)cc2)C3=O)c1` (stereo not drawn) [Example 12, 4-((1-Oxo-4-(m-tolyl)-2,3-dihydro-1H-inden-2-yl)methyl)benzoic acid], the Ki was determined as 610 nM at EP4 [1] and 191 nM on EP2 [2]. The EC50 on EP2 [4] was 217 nM; at EP4 [3] it was 1170 nM.

On to `COc1cc(-c2cccc3c2CC(Cc2ccc(C(=O)O)cc2)C3=O)cc(C(F)(F)F)c1` (stereo not drawn) [Example 8, 4-((4-(3-Methoxy-5-(trifluoromethyl)phenyl)-1-oxo-2,3-dihydro-1H-inden-2-yl)methyl)benzoic acid], for which the Ki came to 889 nM on EP4 [1] and 21 nM at EP2 [2]. Moreover, the values for the EC50 at EP2 [4] and at EP4 [3] were 11 nM and 1050 nM, respectively.

As for `O=C(O)c1ccc(CC2Cc3c(cccc3-c3cccc(Cl)c3)C2=O)s1` (stereo not drawn) [Example 16, 5-((4-(3-Chlorophenyl)-1-oxo-2,3-dihydro-1H-inden-2-yl)methyl)thiophene-2-carboxylic acid], the Ki at EP4 [1] is 505 nM; at EP2 [2] it was 199 nM. Further, the concentration for a half-maximal effect (EC50) at EP2 [4] stood at 62 nM; at EP4 [3], 300 nM.

On to `O=C(O)c1ccc(CC2Cc3c(cccc3-c3ccc(C(F)(F)F)cc3)C2=O)cc1` (stereo not drawn) [Example 6, 4-((1-Oxo-4-(4-(trifluoromethyl)phenyl)-2,3-dihydro-1H-inden-2-yl)methyl)benzoic acid], for which the Ki on EP4 [1] stood at 4450 nM; on EP2 [2] it was 338 nM. This compound had an EC50 on EP4 [3] greater than 10000 nM.

As for `COc1cccc(-c2cccc3c2CC(Cc2ccc(C(=O)O)cc2)C3=O)c1` (stereo not drawn) [Example 11, 4-((4-(3-Methoxyphenyl)-1-oxo-2,3-dihydro-1H-inden-2-yl)methyl)benzoic acid], the Ki worked out at 525 nM at EP4 [1] and 333 nM at EP2 [2]. Also, it took 186 nM to reach a half-maximal effect on EP4 [3] (EC50).

With `COc1ccc(-c2cccc(C(F)(F)F)c2)c2c1C(=O)C(Cc1ccc(C(=O)O)cc1)C2` (stereo not drawn) [Example 20, 4-((7-Methoxy-1-oxo-4-(3-(trifluoromethyl)phenyl)-2,3-dihydro-1H-inden-2-yl)methyl)benzoic acid], the Ki at EP4 [1] worked out at 954 nM; on EP2 [2], 7360 nM. Besides, the EC50 on EP4 [3] was greater than 10000 nM.

As to `O=C(O)c1csc(CC2Cc3c(cccc3-c3cccc(C(F)(F)F)c3)C2=O)c1` (stereo not drawn) [Example 18, 5-((1-Oxo-4-(3-(trifluoromethyl)phenyl)-2,3-dihydro-1H-inden-2-yl)methyl)thiophene-3-carboxylic acid], the Ki on EP4 [1] stood at 5 nM; on EP2 [2], 96 nM. The EC50 was determined as 179 nM on EP2 [4] and 4970 nM at EP4 [3].

`COc1cc(OC)cc(-c2cccc3c2CC(Cc2ccc(C(=O)O)cc2)C3=O)c1` (stereo not drawn) [Example 21]: the figures for the Ki on EP4 [1] and at EP2 [2] were 486 nM and 241 nM, respectively. Also, the EC50 on EP2 [4] came to 79 nM; at EP4 [3] it was 874 nM.

Take `O=C(O)c1ccc(CC2Cc3c(cccc3-c3cccc(C(F)(F)F)c3)C2=O)cc1` (stereo not drawn) [Example 2, 4-((1-Oxo-4-(3-(trifluoromethyl)phenyl)-2,3-dihydro-1H-inden-2-yl)methyl)benzoic acid]: the results for the Ki at EP4 [1] and at EP2 [2] were 18 nM and 56 nM, respectively. The EC50 at EP2 [4] turned out to be 1 nM; on EP4 [3], 108 nM.

Consider `O=C(O)c1ccc(CC2Cc3c(cccc3-c3cc(C(F)(F)F)cc(C(F)(F)F)c3)C2=O)cc1` (stereo not drawn) [Example 9, 4-((4-(3,5-Bis(trifluoromethyl)phenyl)-1-oxo-2,3-dihydro-1H-inden-2-yl)methyl)benzoic acid], for which the Ki was found to be 1780 nM on EP4 [1] and 9 nM on EP2 [2]. In addition, the figures for the EC50 at EP2 [4] and on EP4 [3] were 5 nM and 1630 nM, respectively.

For the origin of these results see patent publication US9415027B2, “Therapeutic agents” (Allergan, Inc., priority 2013, dated 2016).
